The values below come from patent US20220304926A1, “PHARMACEUTICAL COMPOSITION COMPRISING A COLLOIDAL DISPERSION AND METHODS AND USES THEREOF” (PREBONA AB, priority 2019, published 2022).

Bounds are passed on as bounds.

In data set [1] the test system is HCV subgenomic RNA replicon of genotype 1b in Huh7^A2HCV^Rep cells. Description: Luciferase activity assay, HCV replicon in vitro replication. Format: cell-based. The following applies: Hepatitis C virus, 500 nM. From the text:
A hepatoma cell line (Huh7-Lunet) designated Lunet-HlaA2-luc/neoET (Huh7^A2HCV^Rep) and Lunet-HlaA2 (Huh7^A2) were kindly provided by Dr. Volker Lohmann (UniversitätsKlinikum Heidelberg, Molekulare Virologie). The Lunet-HlaA2-luc/neoET expressed ectopically HLA-A2 and a selectable HCV subgenomic RNA replicon of genotype 1b harboring replication-enhancing mutations in NS3 and NS4 (Con1-ET). The replicon also expresses the selectable marker neomycin phosphotransferase, which inactivates the cytotoxic drug G418. The expression of non-structural proteins was driven by the encephalomyocarditis virus IRES (Robinson, M., Yang, H., Peng B. et al. 2010. Antimicrobial Agents and Chemotherapy. 54(8):3099-3106; Pasetto, A., Frelin, L. et al. 2012. J immunol. 189:4510-4519). The replicon cells expressed the firefly luciferase gene fused to the selectable marker by ubiquitin. As control, the parenteral cell line, designated Lunet-HlaA2, was used.
Cells were seeded in flat bottom 96-well plates (Nuncleon™ Δ Surface, Denmark) at a density of 5 000 cells/well in 100 μL of culture medium without antibiotics (G418, puromycin and blasticidin). […] The final concentration of DMSO never exceeded 0.2%. AGSOL 1000-5-5, diluted in culture medium, was added at several concentrations: 0.01 ng/mL, 0.1 ng/mL, 1 ng/mL, 10 ng/mL, 0.1 μg/mL, 1 μg/mL, 10 μg/mL and 100 μg/mL. AGSOL 100-5-5 was added as described above, excluding the concentration 100 μg/mL. Medium without added cells and cells without any inhibitors constituted negative controls. Each concentration of drug was tested in 5 unique wells and the same protocol was carried out for Huh7^A2HCV^Rep and Huh7^A2 cell lines. Inhibitors were refreshed daily. The experimental assays were performed three times with similar results.
The Lunet-HlaA2 (Huh7^A2) cell line was only used as negative control in this assay. The firefly luciferase gene expressed by the replicon cells catalyses the mono-oxygenation of beetle luciferin according to the reaction described in the following reaction scheme:
At time-points 24, 48, 72 and 96 hours post-addition of inhibitors, culture plates were removed from incubator into laminar flow hood and an equal volume of Luciferase assay reagent to that of the culture medium in each well was added. Three minutes were allowed for complete cell lysis, and subsequently the luminescence was measured. Absorbance and luminescence were read by Infinite 200 PRO reader (Tecan Group Ltd, Maennedorf, Switzerland).
The HCV in vitro replication was quantified by measuring the reporter gene expression. The Huh7^A2HCV^Rep cell line expresses both the HCV replicon and the firefly luciferase gene. The measurement of luciferase correlates with the HCV replication activity.

The test system of data set [2] is Huh7^A2HCV^Rep and Huh7^A2 cell lines. Briefly: MTT tetrazolium proliferation / cellular toxicity assay. The class given is cell-based. As to the method:
Cells were seeded in flat bottom 96-well plates (Nuncleon™ Δ Surface, Denmark) at a density of 5 000 cells/well in 100 μL of culture medium without antibiotics (G418, puromycin and blasticidin). […] The final concentration of DMSO never exceeded 0.2%. AGSOL 1000-5-5, diluted in culture medium, was added at several concentrations: 0.01 ng/mL, 0.1 ng/mL, 1 ng/mL, 10 ng/mL, 0.1 μg/mL, 1 μg/mL, 10 μg/mL and 100 μg/mL. AGSOL 100-5-5 was added as described above, excluding the concentration 100 μg/mL. Medium without added cells and cells without any inhibitors constituted negative controls. […]
The 3-[4,5-dimethyltiazol-2-yl]-2,5-diphenyl tetrazolium bromide is cleaved by mitochondrial dehydrogenases of viable cells, leading to purple formazan in the form of insoluble crystals in aqueous solutions but dissolved in acidified isopropanol. The resulting purple solution is spectrophotometrically measured. […]
At time-points 24, 48, 72 and 96 hours post-addition of inhibitors, culture plates were removed from incubator into laminar flow hood. […] The background absorbance of multi-well plates was measured at 690 nm and was subtracted from the 570 nm values. Results were presented as the percentage of viability per condition (inhibitor/concentration) and the absorbance (A570 nm−A690 nm) per time-point for each inhibitor and per cell line. […]

For the molecule `CC(C)(C)NC(=O)N[C@H](C(=O)N1C[C@H]2[C@@H]([C@H]1C(=O)NC(CC1CCC1)C(=O)C(N)=O)C2(C)C)C(C)(C)C` (stereo partly drawn) [Boceprevir], the inhibition at 0.5 µM was around 85% in data set [1] (24 hpa), around 90% in data set [1] (48 hpa), around 90% in data set [1] (72 hpa) and around 90% in data set [1] (96 hpa). Besides, in data set [2] (Boceprevir 100-500 nM, throughout the experiments (24-96 hpa), both cell lines), the “cellular viability compared to cells grown without inhibitor” value was at least 75%. Moreover, the “cellular toxicity by kinetic analysis of absorbance values” in data set [2] (Boceprevir, 24, 48, 72 and 96 hours post-addition) was “did not cause any markedly cellular toxicity”.
